Results: US20100311109A1, “NON-CONTACT METHOD FOR Q[…] IN THE DYNAMICS OF MICROBIAL POPULATIONS” (priority 2009, published 2010)

Test system: E. coli
Assay: Time-kill study of E. coli exposed to ciprofloxacin, measured by infrared thermography (Energy Number)
Assay type: cell-based, Escherichia coli
Conditions: starting inoculum approx. 2×10^6 CFU/ml, 37° C., 0-24 hours
Protocol: It was desired to evaluate utility of the system in a real-time method to measure bacterial growth and death as a function of exposure to an antimicrobial. For that purpose, time-kill studies were performed using E. coli cultures, established substantially as set forth in Example 2. A series of microtiter plates were inoculated with an overnight culture of a representative gram-negative E. coli strain to achieve a starting inoculum of approximately 2×10^6 CFU/ml per well. Test wells were exposed to nine concentrations of an antimicrobial agent of a representative fluoroquinolone (ciprofloxacin) ranging from 0- to 32-fold minimum inhibitory concentration (MIC). […] of those treatments (0, […], 1, 2, 4, and 8-fold MIC) were subcultured for determination of viable cell counts. Control wells received no ciprofloxacin. […] Post-imaging, the contents of the designated wells were removed and the number of viable bacteria in each well was determined using drop and filter count methods.
FIGS. 7a and 7b set forth the changes in bacterial viable counts and the Energy Number of the medium over time, respectively. The Energy Number of the medium over time as determined from thermodynamic modeling of the IR images collected by the detector was highly correlated (R^2=0.9891) to the viable counts obtained following 24 hr incubation (see FIG. 7c).

O=C(O)c1cn(C2CC2)c2cc(N3CCNCC3)c(F)cc2c1=O [ciprofloxacin]
IRT time-kill result (Energy Number over time) (highest (16.0 and 32.0-fold MIC) concentration): rapid bacterial killing
IRT time-kill result (Energy Number over time) (lowest (0.125 and 0.25-fold MIC) concentration): net bacterial growth
